# Assay results: US20040152904A1, “Delta1 pyrrolines” (priority 2001, published 2004)
# System: Heliothis virescens caterpillars
# Test: Heliothis virescens test
# Assay type: in vivo
# Details: 40 ppm active compound, soyabean shoots dipped
# Description: (§1) Heliothis virescens Test Solvent: 30 parts by weight of dimethylformamide Emulsifier: 1 part by weight of alkylaryl polyglycol ether To produce a suitable preparation of active compound, 1 part by weight of active compound is mixed with the stated amounts of solvent and emulsifier, and the concentrate is diluted with emulsifier-containing water to the desired concentration. Soyabean shoots (Glycine max) are treated by being dipped into the preparation of active compound of the desired concentration and are populated with Heliothis virescens caterpillars whilst the leaves are still moist. After the desired period of time, the kill in % is determined. 100% means that all caterpillars have been killed; 0% means that none of the caterpillars have been killed.
row,Structure (SMILES),Kill rate in % after 6d
1,CC(C)(C)n1nnc(-c2ccc(-c3ccc(C4CCC(c5c(F)cccc5F)=N4)cc3)cc2)n1 (stereo not shown) [drawing 54],100%
2,CCn1nnc(-c2ccc(-c3ccc(C4CCC(c5c(F)cccc5F)=N4)cc3)cc2)n1 (stereo not shown) [drawing 55],100%

# System: larvae of the mustard beetle (Phaedon cochleariae)
# Test: Phaedon larvae test
# Assay type: in vivo
# Details: 1000 ppm active compound, cabbage leaves dipped
# Description: as §1, with “Phaedon larvae” for “Heliothis virescens”, “Cabbage leaves (Brassica oleracea)” for “Soyabean shoots (Glycine max)”, “larvae of the mustard beetle (Phaedon cochleariae)” for “Heliothis virescens caterpillars”, “beetle larvae” for “caterpillars”
row,Structure (SMILES),Kill rate in % after 7d
1,CC(C)(C)n1nnc(-c2ccc(-c3ccc(C4CCC(c5c(F)cccc5F)=N4)cc3)cc2)n1 (stereo not shown) [drawing 56],100%
2,CCCn1nnc(-c2ccc(C3CCC(c4c(F)cccc4F)=N3)cc2)n1 (stereo not shown) [drawing 57],100%
3,CCn1nnc(-c2ccc(-c3ccc(C4CCC(c5c(F)cccc5F)=N4)cc3)cc2)n1 (stereo not shown) [drawing 58],100%
4,CCOCn1nnc(-c2ccc(-c3ccc(C4CCC(c5c(F)cccc5F)=N4)cc3)cc2)n1 (stereo not shown) [drawing 59],100%

# System: army worm (Spodoptera exigua) caterpillars
# Test: Spodoptera exigua test
# Assay type: in vivo
# Details: 8 ppm active compound, cabbage leaves dipped
# Description: as §1, with “Spodoptera exigua Test” for “Heliothis virescens Test”, “Solvent: 7” for “Solvent: 30”, “concentration. Cabbage leaves (Brassica oleracea)” for “concentration. Soyabean shoots (Glycine max)”, “with army worm (Spodoptera exigua)” for “with Heliothis virescens”
row,Structure (SMILES),Kill rate in % after 6d
1,CC(C)(C)n1nnc(-c2ccc(-c3ccc(C4CCC(c5c(F)cccc5F)=N4)cc3)cc2)n1 (stereo not shown) [drawing 61],100%

# Same assay, conditions: 40 ppm active compound, cabbage leaves dipped
row,Structure (SMILES),Kill rate in % after 6d
1,CCn1nnc(-c2ccc(-c3ccc(C4CCC(c5c(F)cccc5F)=N4)cc3)cc2)n1 (stereo not shown) [drawing 62],100%

# System: army worm (Spodoptera frugiperda) caterpillars
# Test: Spodoptera frugiperda test
# Assay type: in vivo
# Details: 1000 ppm active compound, cabbage leaves dipped
# Description: as §1, with “Spodoptera frugiperda Test” for “Heliothis virescens Test”, “concentration. Cabbage leaves (Brassica oleracea)” for “concentration. Soyabean shoots (Glycine max)”, “with army worm (Spodoptera frugiperda)” for “with Heliothis virescens”
row,Structure (SMILES),Kill rate in % after 7d
1,CC(C)(C)n1nnc(-c2ccc(-c3ccc(C4CCC(c5c(F)cccc5F)=N4)cc3)cc2)n1 (stereo not shown) [drawing 63],100%
2,CCCn1nnc(-c2ccc(C3CCC(c4c(F)cccc4F)=N3)cc2)n1 (stereo not shown) [drawing 64],100%
3,CCn1nnc(-c2ccc(-c3ccc(C4CCC(c5c(F)cccc5F)=N4)cc3)cc2)n1 (stereo not shown) [drawing 65],100%
4,CCOCn1nnc(-c2ccc(-c3ccc(C4CCC(c5c(F)cccc5F)=N4)cc3)cc2)n1 (stereo not shown) [drawing 66],100%

# System: greenhouse red spider mite (tetranychus urticae)
# Test: Tetranychus test (OP-resistant/dip treatment)
# Assay type: in vivo
# Details: 100 ppm active compound, bean plants dipped
# Description: Tetranychus Test (OP-Resistant/Dip Treatment)
# Solvent: 30 parts by weight of dimethylformamide
# Emulsifier: 1 part by weight of alkylaryl polyglycol ether
# To produce a suitable preparation of active compound, 1 part by weight of active compound is mixed with the stated amounts of solvent and emulsifier, and the. concentrate is diluted with emulsifier-containing water to the. desired concentration.
# Bean plants (Phaseolus vulgaris) which are heavily infested by all stages of the greenhouse red spider mite (tetranychus urticae) are dipped into a preparation of active compound of the desired concentration.
# After the desired period of time, the effect in % is determined. 100% means that all spider mites have been killed; 0% means that none of the spider mites have been killed.
row,Structure (SMILES),Kill rate in % after 7d
1,CC(C)(C)n1nnc(-c2ccc(-c3ccc(C4CCC(c5c(F)cccc5F)=N4)cc3)cc2)n1 (stereo not shown) [drawing 67],98%
2,CCCn1nnc(-c2ccc(C3CCC(c4c(F)cccc4F)=N3)cc2)n1 (stereo not shown) [drawing 68],90%
3,CCn1nnc(-c2ccc(-c3ccc(C4CCC(c5c(F)cccc5F)=N4)cc3)cc2)n1 (stereo not shown) [drawing 69],98%
4,CCOCn1nnc(-c2ccc(-c3ccc(C4CCC(c5c(F)cccc5F)=N4)cc3)cc2)n1 (stereo not shown) [drawing 70],98%

# System: Amblyomma variegatum or A. hebraeum, nymphs which have sucked themselves full
# Test: Nymphecdysis test on polyphagous ticks
# Assay type: in vivo
# Details: 100 ppm active compound; nymphs immersed for 1 minute
# Description: Nymphecdysis Test on Polyphagous Ticks
# Test animals: Amblyomma variegatum or A. hebraeum, nymphs which have sucked themselves full
# Solvent: Dimethyl sulphoxide
# 20 mg of active compound are dissolved in 1 ml of dimethyl sulphoxide, more dilute concentrations are prepared by dilution with distilled water.
# 10 nymphs which have sucked themselves full are immersed for 1 minute into the preparation of active compound to be tested. The animals are transferred to petri dishes (∅ 9.5 cm) fitted with filter discs and covered. […]
# 100% means that none of the animals have undergone normal ecdysis. 0% means that all animals have undergone ecdysis.
# In this test, for example, the compounds 4 and 5 of the preparation examples show good activity.
row,Structure (SMILES),Effect on ecdysis in % after 48h
1,CCn1nnc(-c2ccc(-c3ccc(C4CCC(c5c(F)cccc5F)=N4)cc3)cc2)n1 (stereo not shown) [drawing 73],100%
2,CCOCn1nnc(-c2ccc(-c3ccc(C4CCC(c5c(F)cccc5F)=N4)cc3)cc2)n1 (stereo not shown) [drawing 74],100%

# Same assay, conditions: in vivo
row,Structure (SMILES),activity in the nymphecdysis test
1,"CCOCn1nnc(-c2ccc(-c3ccc(C4CCC(c5c(F)cccc5F)=N4)cc3)cc2)n1 (stereo not shown) [Example 4, 5-{4′-[5-(2,6-difluorophenyl)-3,4-dihydro-2H-pyrrol-2-yl]-1,1′-biphenyl-4-yl}-2-(ethoxymethyl)-2H-tetrazole]",good activity
2,"CCn1nnc(-c2ccc(-c3ccc(C4CCC(c5c(F)cccc5F)=N4)cc3)cc2)n1 (stereo not shown) [Example 5, 5-{4′-[5-(2,6-difluorophenyl)-3,4-dihydro-2Hpyrrol-2-yl]-1,1′-biphenyl-4-yl}-2-ethyl-2H-tetrazole]",good activity

# System: not listed separately
# Test: logP by HPLC (EEC Directive 79/831 Annex V.A8, reversed-phase C 18)
# Assay type: physicochemical
# Details: reversed-phase HPLC column (C 18), pH 2.3, 0.1% aqueous phosphoric acid / acetonitrile, 43° C., read-out: logP (pH 2.3)
# Description: The stated logP values were determined in accordance with EEC Directive 79/831 Annex V.A8 by HPLC (High Performance Liquid Chromatography) using a reversed-phase column (C 18). Temperature: 43° C.
# In the acidic range, the determination was carried out at pH 2.3 using the mobile phases 0.1% aqueous phosphoric acid and acetonitrile; linear gradient from 10% acetonitrile to 90% acetonitrile.
# In the neutral range, the determination was carried out at pH 7.5 using the mobile phases 0.01 molar aqueous phosphate buffer solution and acetonitrile; linear gradient from 10% acetonitrile to 90% acetonitrile.
# Calibration was carried out using unbranched alkan-2-ones (having 3 to 16 carbon atoms) with known logP values (determination of the logP values by the retention times using linear interpolation between two successive alkanones).
row,Structure (SMILES),chromatographic logP
1,"N#Cc1ccc(-c2ccccc2C2CCC(=O)N2)cc1 (stereo not shown) [2′-(5-oxo-2-pyrrolidinyl)-1,1′-biphenyl-4carbonitrile]",1.94
2,CCCn1nnc(-c2ccc(C3CCC(c4c(F)cccc4F)=N3)cc2)n1 (stereo not shown) [Example 1],2.61
3,"CC(C)(C)n1nnc(-c2ccc(-c3ccc(C4CCC(c5c(F)cccc5F)=N4)cc3)cc2)n1 (stereo not shown) [Example 2, 2-tert-butyl-5-{4′-[5-(2,6-difluorophenyl)-3,4dihydro-2H-pyrrol-2-yl]-1,1′-biphenyl-4-yl}-2H-tetrazole]",4.14
4,"CCn1nnc(-c2ccc(-c3ccc(C4CCC(c5c(F)cccc5F)=N4)cc3)cc2)n1 (stereo not shown) [Example 5, 5-{4′-[5-(2,6-difluorophenyl)-3,4-dihydro-2Hpyrrol-2-yl]-1,1′-biphenyl-4-yl}-2-ethyl-2H-tetrazole]",3.21
5,Fc1cccc(F)c1C1=NC(c2ccc(-c3nn[nH]n3)cc2)CC1 (stereo not shown) [I-a-1],1.28
6,"N#Cc1ccc(C2CCC(=O)N2)cc1 (stereo not shown) [XIII-a-1, 4-(5-oxo-2-pyrrolidinyl)benzonitrile]",0.96
7,"N#Cc1ccc(-c2ccc(C3CCC(=O)N3)cc2)cc1 (stereo not shown) [XIII-b-1, 4′-(5-oxo-2-pyrrolidinyl)-1,1′-biphenyl-4carbonitrile]",1.92

# Other lines, results leading:
row,chromatographic logP,Structure (SMILES)
1,2.01,"CC(C)(C)n1nnc(-c2ccc(B(O)O)cc2)n1 [Example V-1, 4-[(2-tert-butyl)-2H-tetrazol-5-yl]phenylboronic acid]"
2,0.19,"OB(O)c1ccc(-c2nn[nH]n2)cc1 [Example V-2, 4-(2H-tetrazol-5-yl)-phenylboronic acid]"
3,4.23,"CC(C)(C)n1nnc(-c2ccc(Br)cc2)n1 [VII-1, 2-tert-butyl-5-(4-bromo-phenyl)-1(2)H-tetrazole]"
4,3.42,"CCOCn1nnc(-c2ccc(Br)cc2)n1 [VII-2, 2-ethoxymethyl-5-(4-bromo-phcnyl)-1(2)H tetrazole]"
5,3.2,"CCn1nnc(-c2ccc(Br)cc2)n1 [VII-3, 2-ethyl-5-(4-bromo-phenyl)-1(2)H-tetrazole]"
6,2.11,"N#Cc1ccc(C2CCC(c3c(F)cccc3F)=N2)cc1 (stereo not shown) [VIII-1, 4-[5-(2,6-difluorophenyl)-3,4-dihydro-2Hpyrrol-2-yl]benzonitrile]"
7,2.84,"N#Cc1ccc(-c2ccc(C3CCC(c4c(F)cccc4F)=N3)cc2)cc1 (stereo not shown) [VIII-2, 4′-[5-(2,6-difluorophenyl)-3,4-dihydro-2H-pyrrol-2-yl]-1,1′-biphenyl-4carbonitrile]"
8,2.12,"CC(C)(C)OC(=O)N1C(=O)CCC1c1ccc(C#N)cc1 (stereo not shown) [XI-1, tert-butyl-2-(4-cyanophenyl)-5-oxo-1-pyrrolidinecarboxylate]"
9,3.03,"CC(C)(C)OC(=O)N1C(=O)CCC1c1ccc(-c2ccc(C#N)cc2)cc1 (stereo not shown) [XI-2, tert-butyl 2(4′-cyano-1,1′-biphenyl-4-yl)-5-oxo-1-pyrrolidinecarboxylate]"

# Same assay, conditions: reversed-phase HPLC column (C 18), pH not printed at the place, read-out: logP
row,chromatographic logP,Structure (SMILES)
1,4.14,"CC(C)(C)n1nnc(-c2ccc(-c3ccc(C4CCC(c5c(F)cccc5F)=N4)cc3)cc2)n1 (stereo not shown) [Example 3, 2-tert-butyl-5-{4′-[5-(2,6-difluorophenyl)-3,4dihydro-2H-pyrrol-2-yl]-1′-biphenyl-4-yl}-2H-tetrazole]"
2,3.4,"CCOCn1nnc(-c2ccc(-c3ccc(C4CCC(c5c(F)cccc5F)=N4)cc3)cc2)n1 (stereo not shown) [Example 4, 5-{4′-[5-(2,6-difluorophenyl)-3,4-dihydro-2H-pyrrol-2-yl]-1,1′-biphenyl-4-yl}-2-(ethoxymethyl)-2H-tetrazole]"

# System: not given
# Test: not given
# Details: not given
row,Structure (SMILES),melting point
1,"CC(C)(C)n1nnc(-c2ccc(-c3ccc(C4CCC(c5c(F)cccc5F)=N4)cc3)cc2)n1 (stereo not shown) [Example 2, 2-tert-butyl-5-{4′-[5-(2,6-difluorophenyl)-3,4dihydro-2H-pyrrol-2-yl]-1,1′-biphenyl-4-yl}-2H-tetrazole]",96 °C
2,"N#Cc1ccc(C2CCC(=O)N2)cc1 (stereo not shown) [XIII-a-1, 4-(5-oxo-2-pyrrolidinyl)benzonitrile]",155 °C

# Next, values leading:
row,melting point,Structure (SMILES)
1,57 °C,"N#Cc1ccc(C2CCC(c3c(F)cccc3F)=N2)cc1 (stereo not shown) [VIII-1, 4-[5-(2,6-difluorophenyl)-3,4-dihydro-2Hpyrrol-2-yl]benzonitrile]"
2,123 °C,"N#Cc1ccc(-c2ccc(C3CCC(c4c(F)cccc4F)=N3)cc2)cc1 (stereo not shown) [VIII-2, 4′-[5-(2,6-difluorophenyl)-3,4-dihydro-2H-pyrrol-2-yl]-1,1′-biphenyl-4carbonitrile]"
3,152 °C,"CC(C)(C)OC(=O)N1C(=O)CCC1c1ccc(-c2ccc(C#N)cc2)cc1 (stereo not shown) [XI-2, tert-butyl 2(4′-cyano-1,1′-biphenyl-4-yl)-5-oxo-1-pyrrolidinecarboxylate]"
